Experimental data published in patent US5728684A, “Determination of prodrugs metabolizable by the liver and therapeutic use thereof” (priority 1994, dated 1998).

Tested on: IPdR oxidase
Assay: Conversion of IPdR to IUdR by cell extracts (rat tissues)
Type: in vitro ADME
Method: Rat hepatic tissue was washed with ice-cold 1.15% KCl and blotted dry. The tissue was then homogenized with a tissue homogenizer, in a volume of 1.15% KCl that was 3 times the tissue weight, to form a 25% (w/v) homogenate. The homogenate was then centrifuged at 10,000 g for 10 minutes at 4° C. The resulting supernatant was filtered through Miracloth (similar to cheese cloth) then dialyzed overnight against 50 mM Tris-HCl buffer pH 7.5 and stored at -80° C. before use. Rat hepatocytes were obtained by a perfusion technique then the cells were extracted with 10 mM phosphate buffer, pH 7.5, containing 1M KCl and dialyzed for 4 hours against 50 mM Tris-HCl buffer pH 7.5.
For the standard assay condition, the reaction mixture contained 50 mM Tris-HCl, pH 7.5, 1 mM EDTA, 180 μM of IPdR (or its analogs) and approximately 0.01 mg protein of 10,000 g supernatant of tissue homogenate in a final volume of 500 μl and the incubation was at 37° C. for 10 minutes unless specified otherwise. 300 μl of reaction mixture was removed at the end of incubation and mixed with 630 μl acetonitrile then agitated. The precipitated protein were removed by centrifugation and the supernatant was lyophilized to dryness. The samples were reconstituted to the original aliquot volume with the HPLC mobile phase buffer and analyzed on a Alltech RP-18 column. IPdR, IUdR and IU were detected at a UV absorption wavelength of 230 nm, and IPdR was also detected at a UV absorption wavelength of 335 nm. The mobile phase was 10% acetonitrile/90%mM ammonium acetate, pH 6.8 and the flow rate was 1 ml/minute. Standard curves of IPdR and IUdR were established from the integration value of known concentrations.
Differential fractionation centrifugation was used in an attempt to localize this IPdR conversion enzyme activity in the liver homogenate. The enzyme activity assay was performed on each fraction. […] Further purification was achieved by use of DEAE cellulose column chromatography, blue Sepharose column chromatography and glycerol gradient centrifugation in this order. This IPdR oxidase activity was purified 380 fold starting from the crude extracts of rat liver. The partially purified enzyme catalyzed IUdR synthesis at a rate of 3.8 μmoles per minute per milligram of protein at 37° C. under these conditions. The apparent molecular weight of this enzyme in both rats and humans as determined by centrifugation on a 20 to 40% glycerol gradient is approximately 280,000 dalton. Neither cofactor nor divalent cations requirement has been found for the rat liver enzyme or the human liver enzyme.
Tissue specificity of the conversion of IPdR

O=c1ncc(I)cn1[C@H]1C[C@H](O)[C@@H](CO)O1 [IPdR, 1-(2-deoxy-β-D-ribofuranosyl)-5-(iodo)-2-pyrimidinone]
IPdR oxidase specific activity of hepatocyte extracts (compared with whole liver extract): very similar specific activity
Specific activity of the conversion of IPdR to IUdR (hepatocyte (rat), 3 samples): 5-11 n mole/mg protein/min
Specific activity of the conversion of IPdR to IUdR (intestine (rat), 3 samples, conversion not detected): < 0.02 n mole/mg protein/min
Specific activity of the conversion of IPdR to IUdR (kidney (rat), 3 samples): 0.8-1.6 n mole/mg protein/min
Specific activity of the conversion of IPdR to IUdR (liver (rat), 5 samples): 5-15 n mole/mg protein/min
Specific activity of the conversion of IPdR to IUdR (lung (rat), 3 samples, conversion not detected): < 0.02 n mole/mg protein/min
IPdR oxidase activity in extracts of kidney and spleen (rat kidney and spleen extracts, compared with liver): much less active
IPdR oxidase activity in lung or intestine extracts (rat lung or intestine extracts): cannot be detected
Specific activity of the conversion of IPdR to IUdR (spleen (rat), 3 samples): 0.2-0.5 n mole/mg protein/min
